According to patent publication US20250289789A1, “REVERSIBLE LYSINE COVALENT MODIFIERS OF CDK2 AND USES THEREOF” (Terremoto Biosciences, Inc., priority 2023, published 2025):
Where two headings read alike, the source gives them in different places.

What was measured:
Format in all cases: cell-based
[1] = test system: Phospho-Rb Ser807/811 in OVCAR3 cells; test: OVCAR3 Phospho-Rb Ser807/811 HTRF assay; details: OVCAR3 cells, Phospho-Rb Ser807/811 HTRF, 1 hour incubation, read-out: pRb-OVCAR3 IC50
Experimental: Cells were trypsinized and resuspended in 1 mM hydroxyurea (Sigma; H8627), 90% RPMI and 10% fetal bovine serum. […] Dose response curve normalized to DMSO control was plotted using four-parameter logistic model for IC50 calculation.

[2] = target: T1, CDK4-NanoLuc fusion with CCND1 in 293T or 293 cells (Homo sapiens, UniProt P11802); test: NanoBRET Target Engagement (TE) Intracellular Kinase Assay, CDK4/CCND1; details: NanoBRET TE intracellular kinase assay, 2-hour incubation, read-out: NanoBRET-CDK4/D1 IC50
T1 construct: host or cells: 293T (ATCC CRL-3216) or 293 (ATCC CRL-1573)

[3] = target: T2, CDK2-NanoLuc fusion with CCNE1 in 293T or 293 cells (Homo sapiens, UniProt P24941); test: NanoBRET Target Engagement (TE) Intracellular Kinase Assay, CDK2/CCNE1; details: NanoBRET TE intracellular kinase assay, 2-hour incubation, read-out: NanoBRET-CDK2/E1 IC50
T2 construct: host or cells: 293T (ATCC CRL-3216) or 293 (ATCC CRL-1573)

T1 sequence (P11802 whole entry, the tested form may be a part): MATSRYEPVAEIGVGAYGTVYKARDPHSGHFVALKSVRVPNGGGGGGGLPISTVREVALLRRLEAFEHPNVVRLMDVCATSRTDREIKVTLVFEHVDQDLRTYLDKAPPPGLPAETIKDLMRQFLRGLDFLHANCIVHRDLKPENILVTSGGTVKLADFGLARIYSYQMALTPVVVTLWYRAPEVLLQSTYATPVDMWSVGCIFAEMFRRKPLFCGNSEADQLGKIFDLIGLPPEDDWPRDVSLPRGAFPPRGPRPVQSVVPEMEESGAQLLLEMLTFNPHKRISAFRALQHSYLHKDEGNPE
T1 sequence (P24385 whole entry partner, the tested form may be a part): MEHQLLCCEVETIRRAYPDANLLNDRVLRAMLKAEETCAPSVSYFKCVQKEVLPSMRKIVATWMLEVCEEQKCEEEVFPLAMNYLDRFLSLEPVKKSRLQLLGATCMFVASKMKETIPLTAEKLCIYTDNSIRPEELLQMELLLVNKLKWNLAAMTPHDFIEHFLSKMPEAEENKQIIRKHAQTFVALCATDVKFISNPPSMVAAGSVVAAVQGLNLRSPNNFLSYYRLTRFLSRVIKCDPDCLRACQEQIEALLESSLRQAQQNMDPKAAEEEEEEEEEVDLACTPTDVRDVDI

Row | SMILES | IC50 ([1]; Homo sapiens, OVCAR-3, 1 h) | IC50 [2] | IC50 [3] | IC50 [1]
1 | CCN(C)NC(=O)O[C@@H]1CC[C@H](c2cc(NC(=O)COc3cc(OC)cc(O)c3C=O)n[nH]2)C1 [Compound 274, (1R,3S)-3-(3-(2-(2-formyl-3-hydroxy-5-methoxyphenoxy)acetamido)-1H-pyrazol-5-yl)cyclopentyl 2-ethyl-2-methylhydrazine-1-carboxylate] | 0.0547 µM | > 10 µM | 0.00317 µM | 
2 | COc1cc(O)c(C=O)c2c1CC(C(=O)Nc1cc([C@H]3CC[C@@H](OC(=O)NN(C)C)C3)n[nH]1)C2 (single isomer, unassigned) [Compound 268, (1R,3S)-3-(3-((*)-4-formyl-5-hydroxy-7-methoxy-2,3-dihydro-1H-indene-2-carboxamido)-1H-pyrazol-5-yl)cyclopentyl 2,2-dimethylhydrazine-1-carboxylate] |  | 4.94 µM | 0.0108 µM | 0.0859 µM
3 | COc1cc(O)c(C=O)c2c1CC(C(=O)Nc1cc([C@H]3CC[C@@H](OC(=O)NN(C)C)C3)n[nH]1)C2 (single isomer, unassigned) [Compound 269, (1R,3S)-3-(3-((*)-4-formyl-5-hydroxy-7-methoxy-2,3-dihydro-1H-indene-2-carboxamido)-1H-pyrazol-5-yl)cyclopentyl 2,2-dimethylhydrazine-1-carboxylate] |  | 0.459 µM | 0.0677 µM | 2.23 µM
4 | COc1cc(O)c(C=O)c(OCC(=O)Nc2cc([C@H]3CC[C@@H](OC(=O)N(C)CCC#N)C3)[nH]n2)c1 [Compound 155] | 0.0235 µM | 6.3 µM | 0.00765 µM | 
5 | COc1cc(O)c(C=O)c(OCC(=O)Nc2cc([C@H]3CC[C@@H](OC(=O)N[C@@H](C)CC(F)(F)F)C3)[nH]n2)c1 [Compound 167] | 0.0243 µM | 0.828 µM | 0.0028 µM | 
6 | COc1cc(O)c(C=O)c2c1CC(C(=O)Nc1cc([C@H]3CC[C@@H](OC(=O)NC(C)(C)C)C3)[nH]n1)C2 (single isomer, unassigned) [Compound 283, (1R,3S)-3-(3-((*)-4-formyl-5-hydroxy-7-methoxy-2,3-dihydro-1H-indene-2-carboxamido)-1H-pyrazol-5-yl)cyclopentyl tert-butylcarbamate] | 0.0126 µM | 0.236 µM | 0.00201 µM | 
7 | COc1cc(O)c(C=O)c(OCC(=O)Nc2cc([C@H]3CC[C@@H](OC(=O)N4C5CC4CN(C)C5)C3)[nH]n2)c1 [Compound 190] | 0.035 µM | 4.16 µM | 0.00802 µM | 
8 | COCC(C)(C)NC(=O)O[C@@H]1CC[C@H](c2cc(NC(=O)COc3cc(OC)cc(O)c3C=O)n[nH]2)C1 [Compound 176] | 0.0574 µM | 3.36 µM | 0.0042 µM | 
9 | COc1cc(O)c(C=O)c(OCC(=O)Nc2cc([C@H]3CC[C@@H](OC(=O)N4CCCCC4)C3)[nH]n2)c1 [Compound 234, (1R,3S)-3-(3-(2-(2-formyl-3-hydroxy-5-methoxyphenoxy)acetamido)-1H-pyrazol-5-yl)cyclopentyl piperidine-1-carboxylate] | 0.0142 µM | 2.84 µM | 0.00118 µM | 
10 | COc1cc(O)c(C=O)c(OCC(=O)Nc2cc([C@H]3CC[C@@H](OC(=O)N4C[C@H](F)C[C@@H]4C)C3)n[nH]2)c1 [Compound 125] | 0.0534 µM | 1.54 µM | 0.00312 µM | 
11 | COc1cc(O)c(C=O)c(OCC(=O)Nc2cc([C@H]3CC[C@@H](OC(=O)N4CCN(C)CC4)C3)[nH]n2)c1 [Compound 195] | 0.0378 µM | 5 µM | 0.00937 µM | 
12 | COc1cc(O)c(C=O)c(OCC(=O)Nc2cc([C@H]3CC[C@@H](OC(=O)N4C[C@H]5CC[C@@H]4CO5)C3)[nH]n2)c1 [Compound 158] | 0.0244 µM | 3.9 µM | 0.00558 µM | 
13 | CCN(NC)C(=O)O[C@@H]1CC[C@H](c2cc(NC(=O)COc3cc(OC)cc(O)c3C=O)n[nH]2)C1 [Compound 275, (1R,3S)-3-(3-(2-(2-formyl-3-hydroxy-5-methoxyphenoxy)acetamido)-1H-pyrazol-5-yl)cyclopentyl 1-ethyl-2-methylhydrazine-1-carboxylate] | 0.0357 µM | 5.3 µM | 0.00311 µM | 
14 | COc1cc(O)c(C=O)c2c1CC(C(=O)Nc1cc([C@H]3CC[C@@H](OC(=O)N4CCCN4C)C3)[nH]n1)C2 (single isomer, unassigned) [Compound 263, (1R,3S)-3-(3-((*)-4-formyl-5-hydroxy-7-methoxy-2,3-dihydro-1H-indene-2-carboxamido)-1H-pyrazol-5-yl)cyclopentyl 2-methylpyrazolidine-1-carboxylate] |  | 0.735 µM | 0.0633 µM | 7.74 µM
15 | CCN(CC)N(C)C(=O)O[C@@H]1CC[C@H](c2cc(NC(=O)COc3cc(OC)cc(O)c3C=O)n[nH]2)C1 [Compound 277, (1R,3S)-3-(3-(2-(2-formyl-3-hydroxy-5-methoxyphenoxy)acetamido)-1H-pyrazol-5-yl)cyclopentyl 2,2-diethyl-1-methylhydrazine-1-carboxylate] | 0.0256 µM | 5.09 µM | 0.00148 µM | 
16 | O=Cc1c(O)cc(OC(F)F)cc1OCC(=O)Nc1cc([C@H]2CC[C@@H](OC(=O)N3C4COCC3C4)C2)[nH]n1 [Compound 186] | 0.105 µM | 6.58 µM | 0.022 µM | 
17 | COc1cc(O)c(C=O)c(OCC(=O)Nc2cc([C@H]3CC[C@@H](OC(=O)NCC(F)F)C3)[nH]n2)c1 [Compound 142] | 0.0533 µM | 7.02 µM | 0.00376 µM | 
18 | COc1cc(O)c(C=O)c(OCC(=O)Nc2cc([C@H]3CC[C@@H](OC(=O)Nc4ccncc4)C3)[nH]n2)c1 [Compound 165] | 0.383 µM | 7.92 µM | 0.0128 µM | 
19 | COc1cc(O)c(C=O)c(OCC(=O)Nc2cc([C@H]3CC[C@@H](OC(=O)N[C@H]4C[C@@H](C#N)C4)C3)[nH]n2)c1 [Compound 138] | 0.0806 µM | 5.86 µM | 0.00471 µM | 
20 | COc1cc(O)c(C=O)c(OCC(=O)Nc2cc([C@H]3CC[C@@H](OC(=O)N4C5CCC(C5)N4C)C3)[nH]n2)c1 (stereo partly drawn) [Compound 272, (1R,3S)-3-(3-(2-(2-formyl-3-hydroxy-5-methoxyphenoxy)acetamido)-1H-pyrazol-5-yl)cyclopentyl 3-methyl-2,3-diazabicyclo[2.2.1]heptane-2-carboxylate] | 0.0393 µM | > 10 µM | 0.0022 µM | 
21 | C#CCN(CC)C(=O)O[C@@H]1CC[C@H](c2cc(NC(=O)COc3cc(OC)cc(O)c3C=O)n[nH]2)C1 [Compound 144] | 0.029 µM | 2.34 µM | 0.00236 µM | 
22 | COc1cc(O)c(C=O)c(OCC(=O)Nc2cc([C@H]3CC[C@@H](OC(=O)NC4(C)CC4(F)F)C3)[nH]n2)c1 (single isomer, unassigned) [Compound 280, (1R,3S)-3-(3-(2-(2-formyl-3-hydroxy-5-methoxyphenoxy)acetamido)-1H-pyrazol-5-yl)cyclopentyl ((*)-2,2-difluoro-1-methylcyclopropyl)carbamate] | 0.0174 µM | 0.576 µM | 0.00388 µM | 
23 | COc1cc(O)c(C=O)c(OCC(=O)Nc2cc([C@H]3CC[C@@H](OC(=O)NCC#N)C3)[nH]n2)c1 [Compound 127] | 0.0983 µM | 8.53 µM | 0.0259 µM | 
24 | COc1cc(O)c(C=O)c(OCC(=O)Nc2cc([C@H]3CC[C@@H](OC(=O)NCc4cnn(C)c4)C3)[nH]n2)c1 [Compound 137] | 0.295 µM | > 10 µM | 0.0216 µM | 
25 | CCN(CC)C(=O)O[C@@H]1CC[C@H](c2cc(NC(=O)COc3cc(OC)cc(O)c3C=O)n[nH]2)C1 [Compound 180] | 0.0235 µM | 1.58 µM | 0.00268 µM | 
26 | COc1cc(O)c(C=O)c2c1CC(C(=O)Nc1cc([C@H]3CC[C@@H](OC(=O)N4CCCCN4C)C3)[nH]n1)C2 (single isomer, unassigned) [Compound 267, (1R,3S)-3-(3-((*)-4-formyl-5-hydroxy-7-methoxy-2,3-dihydro-1H-indene-2-carboxamido)-1H-pyrazol-5-yl)cyclopentyl 2-methyltetrahydropyridazine-1(2H)-carboxylate] |  | 0.266 µM | 0.0218 µM | 5.23 µM
27 | COc1cc(O)c(C=O)c(OCC(=O)Nc2cc([C@H]3CC[C@@H](OC(=O)NCc4ccccc4)C3)[nH]n2)c1 [Compound 170] | 0.0706 µM | 6.04 µM | 0.00306 µM | 
28 | COc1cc(O)c(C=O)c(OCC(=O)Nc2cc([C@H]3CC[C@@H](OC(=O)NCCC(F)(F)F)C3)[nH]n2)c1 [Compound 175] | 0.0169 µM | 8.44 µM | 0.00211 µM | 
29 | COCC[C@H](C)NC(=O)O[C@@H]1CC[C@H](c2cc(NC(=O)COc3cc(OC)cc(O)c3C=O)n[nH]2)C1 [Compound 177] | 0.0293 µM | > 10 µM | 0.00317 µM | 
